According to article PMC4278257 (International Journal of Biological Sciences, 2015):
Numbering of substitutions follows the chain as printed. Entries after “also recorded” stand apart in the source; their conditions may differ. Where two headings read alike, the source gives them in different places.

Experiments:
SlitOBP1 = target: T1, SlitOBP1 (Spodoptera litura, UniProt A1Z1R1); experiment: Fluorescence competitive binding assay with 1-NPN, recombinant SlitOBP1; conditions: for binding to SlitOBP1 in the competitive fluorescence binding assay, in words: wild-type SlitOBP1, displacement of 1-NPN
T1 sequence (A1Z1R1 20-164): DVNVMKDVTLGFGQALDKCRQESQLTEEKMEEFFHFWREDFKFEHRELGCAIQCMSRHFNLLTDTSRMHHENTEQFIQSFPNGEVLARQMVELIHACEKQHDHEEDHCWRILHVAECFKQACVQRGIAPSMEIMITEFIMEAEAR

[1] = target: T2, SlitOBP1 Trp37 (tryptophan to alanine) (Spodoptera litura, UniProt A1Z1R1, W56A); experiment: Fluorescence binding assay with 1-NPN, mutant SlitOBP1 Trp37
T2 sequence (A1Z1R1 20-164 W56A): T1 sequence (A1Z1R1 20-164) with W37A

[2] = target: T3, SlitOBP1 Phe12 (phenylalanine to alanine) (Spodoptera litura, UniProt A1Z1R1, F31A); experiment: Fluorescence binding assay with 1-NPN, mutant SlitOBP1 Phe12
T3 sequence (A1Z1R1 20-164 F31A): T1 sequence (A1Z1R1 20-164) with F12A

[3] = target: T4, SlitOBP1 Ile52 (isoleucine to alanine) (Spodoptera litura, UniProt A1Z1R1, I71A); experiment: Fluorescence binding assay with 1-NPN, mutant SlitOBP1 Ile52
T4 sequence (A1Z1R1 20-164 I71A): T1 sequence (A1Z1R1 20-164) with I52A

[4] = target: T5, SlitOBP1 Thr9 (threonine to alanine) (Spodoptera litura, UniProt A1Z1R1, T28A); experiment: Fluorescence binding assay with 1-NPN, mutant SlitOBP1 Thr9
T5 sequence (A1Z1R1 20-164 T28A): T1 sequence (A1Z1R1 20-164) with T9A

[5] = target: T6, SlitOBP1 Glu98 (glutamic to alanine) (Spodoptera litura, UniProt A1Z1R1, E117A); experiment: Fluorescence binding assay with 1-NPN, mutant SlitOBP1 Glu98
T6 sequence (A1Z1R1 20-164 E117A): T1 sequence (A1Z1R1 20-164) with E98A

[6] = 2 μM SlitOBP1, 2 μM 1-NPN, ligand 0-20 μM, unit inferred

For `CC[C@H](C)[C@H](NC(=O)[C@@H](N)CCCCN)C(=O)O` [20556-13-2, H-Lys-Ile-OH], the Ki (SlitOBP1) was 4.65 µM and the IC50 (SlitOBP1; [6]) was 7.52 µM.
`OCC(F)(F)C(F)(F)C(F)(F)C(F)(F)C(F)(F)C(F)(F)C(F)(F)CO` [203303-01-9, 1H,1H,9H,9H-perfluoro-1,9-nonanediol] gave a Ki (SlitOBP1) of 5.84 µM and an IC50 (SlitOBP1; [6]) of 9.45 µM.
With `C[C@]12C=CC(=O)C=C1CC[C@@H]1[C@@H]2C(=O)C[C@@]2(C)[C@H]1CC[C@]2(O)C(=O)CO` [53-03-2, 1,2-Dehydrocortisone, reference compound] the Ki (SlitOBP1) was 3.09 µM, the IC50 (SlitOBP1; [6]) was 5 µM and the “binding to SlitOBP1 in the competitive fluorescence binding assay, in words” value (“binding to SlitOBP1” for short) (SlitOBP1) was “high affinities; also recorded: could effectively displace 1-NPN”.
In the case of `NCCC(F)(F)C(F)(F)C(F)(F)C(F)(F)C(F)(F)C(F)(F)C(F)(F)C(F)(F)F` [30670-30-5, 1H,1H,2H,2H-perfluorodecylamine], the “binding to SlitOBP1” value (SlitOBP1) is reported as “no binding potential”.
In the case of `O=C(O)C(F)(F)C(F)(F)C(F)(F)C(F)(F)C(F)(F)C(F)(F)C(F)(F)C(F)(F)F` [375-95-1, Perfluorononanoic acid], the Ki (SlitOBP1) is reported as 3.76 µM, the IC50 (SlitOBP1; [6]) is reported as 6.08 µM and the “binding to SlitOBP1” value (SlitOBP1) is reported as “high affinities; also recorded: could effectively displace 1-NPN”.
Compound `CC(=O)[C@H]1CC[C@H]2[C@@H]3CC=C4C[C@@H](O)CC[C@]4(C)[C@H]3CC[C@]12C` [145-13-1, Delta-5-pregnenolone] has a Ki (SlitOBP1) of 9.13 µM and an IC50 (SlitOBP1; [6]) of 14.8 µM.
For `OCC(F)(F)C(F)(F)C(F)(F)C(F)(F)C(F)(F)C(F)(F)C(F)(F)C(F)(F)CO` [754-96-1, 1H,1H,10H,10H-perfluoro-1,10-decanediol], the Ki (SlitOBP1) was 4.13 µM and the IC50 (SlitOBP1; [6]) was 6.68 µM.
`N#CC(F)(F)C(F)(F)C(F)(F)C(F)(F)C(F)(F)C(F)(F)C(F)(F)C(F)(F)C#N` [2342-09-8, Perfluorosebaconitrile] was tested, and the “binding to SlitOBP1” value (SlitOBP1) was “no binding potential”.
For `N[C@@H](Cc1ccc(O)cc1)C(=O)OCc1ccccc1` [42406-77-9, L-Tyrosine benzyl ester], the Ki (SlitOBP1) was 4.47 µM and the IC50 (SlitOBP1; [6]) was 7.23 µM.
With `CC(=O)[C@@]12O[C@@H]1C[C@H]1[C@@H]3CC=C4C[C@@H](O)CC[C@]4(C)[C@H]3CC[C@@]12C` [974-23-2, 16,17-epoxypregnenolone] the Ki (SlitOBP1) was 5.12 µM and the IC50 (SlitOBP1; [6]) was 8.28 µM.
For `C[C@]12C=CC(=O)C=C1CC[C@@H]1[C@@H]2[C@@H](O)C[C@@]2(C)[C@H]1CC[C@]2(O)C(=O)CO` [50-24-8, 11β,17α,21-trihydroxypregna-1,4-diene-3,20-dione, reference compound], the Ki (SlitOBP1) was 3.1 µM, the IC50 (SlitOBP1; [6]) was 5.02 µM and the “binding to SlitOBP1” value (SlitOBP1) was “high affinities; also recorded: could effectively displace 1-NPN”.
In the case of `OCCC(F)(F)C(F)(F)C(F)(F)C(F)(F)C(F)(F)C(F)(F)C(F)(F)C(F)(F)F` [678-39-7, 1H,1H,2H,2H-perfluoro-1-decanol], the Ki (SlitOBP1) is reported as 3.69 µM, the IC50 (SlitOBP1; [6]) is reported as 5.97 µM and the “binding to the mutant compared with the wild type, in words” value ([1]; mutant Trp37) is reported as “better binding activities”.
In the case of `CC(C)(C)OC(=O)C[C@H](NC(=O)OCc1ccccc1)C(=O)O` [5545-52-8, N-Cbz-L-Aspartic acid 4-tert-butyl ester], the IC50 (SlitOBP1) is reported as 6.7 µM and the Ki (SlitOBP1) is reported as 4.14 µM.
Compound `NC(=O)[C@@H]1CCCN1C(=O)[C@H](Cc1cnc[nH]1)NC(=O)[C@@H]1CCC(=O)N1` [24305-27-9, Pyr-His-Pro-NH2] has a Ki (SlitOBP1) of 4.44 µM and an IC50 (SlitOBP1; [6]) of 7.18 µM.
With `c1ccc(Nc2cccc3ccccc23)cc1` [1-NPN, N-phenyl-1-naphthylamine, reference compound] the Kd (SlitOBP1) was 3.24 ± 0.2 µM, the Kd [2] was 6.78 ± 0.25 µM and the Kd [3] was 5.43 ± 0.31 µM. The Kd [4] was 4.21 ± 0.19 µM, the Kd [5] was 3.67 ± 0.25 µM and the Kd [1] was 4.54 ± 0.28 µM.
`O=C(O)C(F)(F)C(F)(F)C(F)(F)C(F)(F)C(F)(F)C(F)(F)C(F)(F)C(F)(F)Cl` [865-79-2, 9-Chlorohexadecafluorononanoic acid] was tested, and the IC50 (SlitOBP1) was 6 µM, the Ki (SlitOBP1) was 3.73 µM and the “binding to SlitOBP1” value (SlitOBP1) was “high affinities; also recorded: could effectively displace 1-NPN”.
For `NCC(=O)NC(Cc1ccc(O)cc1)C(=O)NCC(=O)O` (stereo not drawn) [6099-08-7, H-Gly-Tyr-Gly-OH], the Ki (SlitOBP1) was 3.78 µM, the IC50 (SlitOBP1; [6]) was 6.11 µM and the “binding to the mutant compared with the wild type, in words” value ([4]; mutant Thr9) was “better binding activities”. For the same compound, the “binding to the mutant compared with the wild type, in words” value ([5]; mutant Glu98) was “better binding activities”.
